Reference: patent publication US4556671A, “Pharmaceutical formulations” (Burroughs Wellcome Co., priority 1981, dated 1985)
In brackets after ≈: the same amount, converted by molar mass. Where two headings read alike, the source gives them in different places.

Tests used:
Leukocyte Migration = experiment: Carrageenin-impregnated sponge inflammatory exudates: leukocyte migration; type: in vivo, rat; details: 24 hours
Experimental: (§1) The sponges were removed after 24 hours, immersed in 5 ml herparinised saline and squeezed until dry.

Prostaglandin = experiment: Carrageenin-impregnated sponge inflammatory exudates: prostaglandin concentration; type: in vivo, rat; details: 24 hours
Experimental: as §1

Female Wistar rats = experiment: Acute Anti-inflammatory Activity: Carrageenin Test; type: in vivo, rat
Experimental: Female Wistar rats (100-150 g, groups of 5) were starved for approximately 24 hours prior to testing and througout the experimental period. Water was available ad. lib. […] A control group received Celacol alone. Immediately after dosing, each rat received, in a plantar area of the left hind foot, an injection of 0.1 ml of the supernatant of a 30 mg/ml suspension of carrageenin in 0.9% saline. The thickness of the foot was measured with calipers 1 hour and 4 hours after the carrageenin injection. The increases in foot thickness during this time was compared with those of the control group and the percentage reduction in swelling calculated for each tested group.

mice = experiment: PBQ-Induced Algesia; type: in vivo; details: Mus musculus, po, read-out: ED50 (reduction of number of stretches by 50%)
Experimental: An irritant, p-phenylbenzquinone (PBQ), was administered to mice intraperitoneally at a dose of 5 mg/kg to elicit a stretch-reflex in the animal. The number of stretches in 25 minute period were counted.

lipoxygenase = experiment: Inhibition of Lipoxygenase (enzyme assay, Blackwell and Flower); type: biochemical
HETE = experiment: Production of HETE (enzyme assay, Blackwell and Flower); type: biochemical; details: 100 μg/ml
[1] = system: cyclo-oxygenase and lipoxygenase
[2] = rat, oral, suspension in 0.25% Celacol, reduction in foot swelling 1 to 4 hours after carrageenin, read-out: ED50
[3] = 30 mins prior to PBQ 5 mg/kg intraperitoneally, stretches in 25 minutes

COc1ccc2c(c1)c(CC(=O)O)c(C)n2C(=O)c1ccc(Cl)cc1 [Indomethacin]
Inhibition of Leukocyte Migration (Leukocyte Migration; 4 mg/kg p.o., s.e.m): 26% ± 7 | Reduction of Prostaglandin Concentration (Prostaglandin; 4 mg/kg p.o.): 98%

C[C@@H]1C[C@H]2[C@@H]3CCC4=CC(=O)C=C[C@]4(C)[C@@]3(F)[C@@H](O)C[C@]2(C)[C@@]1(O)C(=O)CO [Dexamethasone]
Inhibition of Leukocyte Migration (Leukocyte Migration; 0.1 mg/kg i.m., s.e.m): 62% ± 17 | Inhibition of Leukocyte Migration (Leukocyte Migration; 0.1 mg/kg p.o.): ~ 30% | Reduction of Prostaglandin Concentration (Prostaglandin; 0.1 mg/kg i.m., s.e.m): 64% ± 6 | Reduction of Prostaglandin Concentration (Prostaglandin; 0.1 mg/kg p.o.): ~ 30%

CC1CC(N)=NN1c1ccc(Cl)cc1.Cl (centres unmarked) [Example 24, 3-Amino-1-p-chlorophenyl-5-methyl-2-pyrazoline hydrochloride]
ED50 (Female Wistar rats; [2]): 36 mg/kg

CC(=O)Oc1ccccc1C(=O)O [Aspirin, reference compound]
ED50 (Female Wistar rats; Rattus norvegicus, po, 4 h): 70 mg/kg | ED50 (mice): 70 mg/kg

NC1=NN(c2ccccc2)CC1 [Example 7, 3-Amino-1-phenyl-2-pyrazoline]
ED50 (Female Wistar rats; [2]): 60 mg/kg

NC1=NN(c2ccc(Cl)cc2)CC1 [Example 6, 3-Amino-1-p-chlorophenyl-2-pyrazoline]
ED50 (Female Wistar rats; [2]): 22 mg/kg | ED50 (mice; [3]): 13 mg/kg

CCCCC1C(=O)N(c2ccccc2)N(c2ccccc2)C1=O [Phenylbutazone, reference compound]
ED50 (Female Wistar rats; [2]): 22 mg/kg

NC1=NN(c2cccc(C(F)(F)F)c2)CC1 [Example 1, 3-Amino-1-(m-trifluoromethylphenyl)pyrazol-2-ine]
ED50 (Female Wistar rats; [2]): 11 mg/kg | IC50 (lipoxygenase) (lipoxygenase): 0.72 µg/mL (≈ 3.14 µM) | reduction of the production of HETE (HETE): less than 20% | Inhibition of Leukocyte Migration (Leukocyte Migration; 50 mg/kg p.o., s.e.m): 73% ± 9 | ED50 (mice; [3]): 20.6 mg/kg | inhibition of cyclo-oxygenase and lipoxygenase activity (in words) [1]: equally active in inhibiting cyclo-oxygenase and lipoxygenase activity | doses at which cyclo-oxygenase and lipoxygenase are inhibited (in words) ([1]; compared with the other heterocyclic compounds of formula (I)): at doses substantially below those of the other heterocyclic compounds of formula (I)
